# Values of other authors, collected in patent US20190083388A1, “SYNTHENTIC TRANSDERMAL CANNABIDIOL FOR THE TREATMENT OF FOCAL EPILEPSY IN ADULTS” (ZYNERBA PHARMACEUTICALS, INC., priority 2017, published 2019).
# Read-outs that look alike come from different tables or passages of the source.
# Legend:
# [1] = not given; remark: listed apart in the source
# CB2 receptors = CB2 receptors (Homo sapiens, UniProt P34972)
# Sequence of CB2 receptors (P34972 whole entry): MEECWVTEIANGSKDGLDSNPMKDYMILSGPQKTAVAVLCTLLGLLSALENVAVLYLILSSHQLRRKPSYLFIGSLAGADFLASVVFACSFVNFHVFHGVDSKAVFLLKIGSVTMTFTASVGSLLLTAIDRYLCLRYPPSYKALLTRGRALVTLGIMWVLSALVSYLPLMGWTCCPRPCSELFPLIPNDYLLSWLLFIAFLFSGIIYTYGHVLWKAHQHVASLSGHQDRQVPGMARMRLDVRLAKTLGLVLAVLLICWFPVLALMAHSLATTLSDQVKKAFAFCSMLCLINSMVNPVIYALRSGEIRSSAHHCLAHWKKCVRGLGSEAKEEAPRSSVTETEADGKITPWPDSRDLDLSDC
smiles,measurement,setting,value
"C=C(C)C1CCC(C)=CC1c1c(O)cc(CCCCC)cc1O (stereo not shown) [CBD, 2-[3-methyl-6-(1-methylethenyl)-2-cyclohexen-1-yl]-5-pentyl-1,3-benzenediol]",solubility in water,,virtually insoluble
same,bioavailability,[1]; oral,≈ 6%
same,bioavailability,[1]; transdermal delivery,about 25%
same,affinity for CB2 receptors,CB2 receptors,low affinity
